Reference: patent US9834542B2, “LXR modulators” (BRISTOL-MYERS SQUIBB COMPANY, priority 2013, dated 2017)

Molecular target: T1, LXRβ (Homo sapiens, UniProt P55055)
T1 construct: Co-transfection expression plasmids, comprising full-length LXRα (pCMX-h LXRα[…] or LXRβ (pCMX-hLXRβ)); expressed in transfected cells; host or cells: CV-1 African Green Monkey Kidney Cells
T1 sequence (P55055 1-460): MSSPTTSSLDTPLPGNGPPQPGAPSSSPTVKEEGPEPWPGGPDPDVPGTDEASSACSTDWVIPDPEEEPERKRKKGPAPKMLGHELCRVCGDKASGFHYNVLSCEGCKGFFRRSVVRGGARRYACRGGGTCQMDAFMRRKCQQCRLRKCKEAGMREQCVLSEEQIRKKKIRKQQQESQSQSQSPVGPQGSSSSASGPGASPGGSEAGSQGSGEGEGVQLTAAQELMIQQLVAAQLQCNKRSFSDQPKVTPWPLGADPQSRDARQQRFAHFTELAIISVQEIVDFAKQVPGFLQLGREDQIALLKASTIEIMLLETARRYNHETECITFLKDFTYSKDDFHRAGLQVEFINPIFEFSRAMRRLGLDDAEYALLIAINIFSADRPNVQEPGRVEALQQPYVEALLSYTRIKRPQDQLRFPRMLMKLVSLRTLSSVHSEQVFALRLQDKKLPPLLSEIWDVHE
T1 sequence (P19793 1-462 partner): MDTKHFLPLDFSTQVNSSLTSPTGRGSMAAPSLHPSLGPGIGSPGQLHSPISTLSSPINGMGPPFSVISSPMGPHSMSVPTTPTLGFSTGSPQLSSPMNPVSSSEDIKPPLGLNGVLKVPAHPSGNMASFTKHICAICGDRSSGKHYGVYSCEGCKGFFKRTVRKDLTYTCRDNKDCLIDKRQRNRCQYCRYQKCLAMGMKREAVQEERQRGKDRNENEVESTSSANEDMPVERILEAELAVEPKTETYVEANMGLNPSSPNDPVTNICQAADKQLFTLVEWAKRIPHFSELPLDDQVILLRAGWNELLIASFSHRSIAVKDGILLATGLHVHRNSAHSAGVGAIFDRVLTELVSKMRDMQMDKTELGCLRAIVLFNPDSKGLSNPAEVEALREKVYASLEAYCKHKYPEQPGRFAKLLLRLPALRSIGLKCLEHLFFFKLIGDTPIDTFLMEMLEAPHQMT
Assay: Co-transfection assay (LXRE luciferase reporter), LXRβ
Format: cell-based
Details: for EC50: CV-1 cells transfected with pCMX-hLXRβ and LXREx1-Tk-Luciferase, 20 hours incubation; for Emax: LXRβ co-transfection, relative to high control 1-(2,4-difluorobenzyl)-2-oxo-6-(4-phenoxyphenyl)-4-(trifluoromethyl)-1,2-dihydropyridine-3-carbonitrile, read-out: % Efficacy
How it was run: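 CV-1 / pCMX-hLXRβ + LXREx1-Tk-Luc + β-gal; cpd 20 h, 37 °C, ≤0.5% DMSO; Steady-Glo luminescence. 11-pt ½-log curves, duplicate wells, sigmoidal fit → EC50; % efficacy vs high-control agonist, DMSO low control; mean of ≥2 expts.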

EC50 | Emax | Structure (SMILES)
102 nM | 94% | Cc1nc(C(F)(F)F)cn1-c1ccc(-c2cc(F)c(CO)c(S(C)(=O)=O)c2)cc1-n1nncc1-c1ccc(OC(F)(F)F)c(Cl)c1 [Example 78, {3′-(5-{3-chloro-4-[(trifluoromethyl)oxy]phenyl}-1H-1,2,3-triazol-1-yl)-3-fluoro-5-(methylsulfonyl)-4′-[2-methyl-4-(trifluoromethyl)-1H-imidazol-1-yl]biphenyl-4-yl}methanol]
1040 nM | 61% | Cc1nc(C(F)(F)F)cn1-c1ccc(-c2cccc(S(C)(=O)=O)c2)cc1-n1nncc1Cc1ccc(OC(F)(F)F)cc1 [Example 118, 1-{3′-(methylsulfonyl)-4-[2-methyl-4-(trifluoromethyl)-1H-imidazol-1-yl]biphenyl-3-yl}-5-({4-[(trifluoromethyl)oxy]phen-yl}methyl)-1H-1,2,3-triazole]
223 nM | 110% | Cc1nc(C(F)(F)F)cn1-c1ccc(-c2cc(F)c(CO)c(S(C)(=O)=O)c2)cc1-c1cnnn1-c1ccc(OC(F)(F)F)cc1 [Example 244, [3-fluoro-5-(methylsulfonyl)-4′-[2-methyl-4-(trifluoromethyl)-1H-imidazol-1-yl]-3′-(1-{4-[(trifluoromethyl)oxy]phenyl}-1H-1,2,3-triazol-5-yl)biphenyl-4-yl]methanol]
174 nM | 77% | Cc1nc(-c2cc(-c3cc(F)c(CO)c(S(C)(=O)=O)c3)ccc2-n2cc(C(F)(F)F)nc2C)c(-c2ccc(Cl)c(OC(F)F)c2)o1 [Example 459, (3′-(5-(4-chloro-3-(difluoromethoxy)phenyl)-2-methyloxazol-4-yl)-3-fluoro-4′-(2-methyl-4-(trifluoromethyl)-1H-imidazol-1-yl)-5-(methylsulfonyl)biphenyl-4-yl)methanol]
410 nM | 80% | COc1ncc(-c2oc(C)nc2-c2cc(-c3cccc(S(C)(=O)=O)c3)ccc2-n2cc(C(F)(F)F)nc2C)cc1F [Example 439, 5-(5-fluoro-6-methoxypyridin-3-yl)-2-methyl-4-(4-(2-methyl-4-(trifluoromethyl)-1H-imidazol-1-yl)-3′-(methylsulfonyl)biphenyl-3-yl)oxazole]
475 nM | 91% | CNS(=O)(=O)c1cccc(-c2ccc(-n3cc(C(F)F)nc3C)c(-c3cnnn3Cc3ccc(Cl)cc3)c2)c1 [Example 246, 3′-(1-(4-chlorobenzyl)-1H-1,2,3-triazol-5-yl)-4′-(4-(difluoromethyl)-2-methyl-1H-imidazol-1-yl)-N-methyl-[1,1′-biphenyl]-3-sulfonamide]
1130 nM | 104% | CCS(=O)(=O)c1cccc(-c2ccc(-n3cc(C(F)F)nc3C)c(-n3nncc3-c3ccc(OC(F)(F)F)cc3)c2)c1 [Example 157, 1-{4-[4-(difluoromethyl)-2-methyl-1H-imidazol-1-yl]-3′-(ethylsulfonyl)biphenyl-3-yl}-5-{4-[(trifluoromethyl)oxy]phenyl}-1H-1,2,3-triazole]
88 nM | 95% | COCc1c(F)cc(-c2cc(F)c(-n3cc(C(F)(F)F)nc3C)c(-n3nncc3-c3ccc(OC(F)(F)F)cc3)c2)cc1S(C)(=O)=O [Example 206, 1-{3′,5-difluoro-4′-[(methyloxy)methyl]-5′-(methylsulfonyl)-4-[2-methyl-4-(trifluoromethyl)-1H-imidazol-1-yl]biphenyl-3-yl}-5-{4-[(trifluoromethyl)oxy]phenyl}-1H-1,2,3-triazole]
67 nM | 102% | Cc1nc(-c2cc(-c3ccc(CCO)c(S(C)(=O)=O)c3)ccc2-n2cc(C(F)(F)F)nc2C)c(-c2ccc(OC(F)(F)F)cc2)o1 [Example 523, 2-(4′-(2-methyl-4-(trifluoromethyl)-1H-imidazol-1-yl)-3′-(2-methyl-5-(4-(trifluoromethoxy)phenyl)oxazol-4-yl)-3-(methylsulfonyl)-[1,1′-biphenyl]-4-yl)ethanol]
894 nM | 78% | CCS(=O)(=O)c1cccc(-c2ccc(-n3cc(C(C)(F)F)nc3C)c(-n3nncc3-c3ccc(OC(F)(F)F)cc3)c2)c1 [Example 177, 1-{4-[4-(1,1-difluoroethyl)-2-methyl-1H-imidazol-1-yl]-3′-(ethylsulfonyl)biphenyl-3-yl}-5-{4-[(trifluoromethyl)oxy]phenyl}-1H-1,2,3-triazole]
255 nM | 60% | Cc1nc(-c2cc(-c3cc(F)c(CO)c(S(C)(=O)=O)c3)ccc2-n2cc(C(F)(F)F)nc2C)c(-c2ccc(OC3CCCC3)nc2)o1 [Example 411, (3′-(5-(6-(cyclopentyloxy)pyridin-3-yl)-2-methyloxazol-4-yl)-3-fluoro-4′-(2-methyl-4-(trifluoromethyl)-1H-imidazol-1-yl)-5-(methylsulfonyl)biphenyl-4-yl)methanol]
201 nM | 83% | CCS(=O)(=O)c1cccc(-c2ccc(-n3cc(C(F)(F)F)nc3C)c(-n3nncc3C(C)c3ccc(C)cc3)c2)c1 (stereo not shown) [Example 107, 1-{3′-(ethylsulfonyl)-4-[2-methyl-4-(trifluoromethyl)-1H-imidazol-1-yl]biphenyl-3-yl}-5-[1-(4-methylphenyl)ethyl]-1H-1,2,3-triazole]
599 nM | 79% | Cc1nc(C(C)(F)F)cn1-c1ccc(-c2cc(F)c(CO)c(S(C)(=O)=O)c2)cc1-c1ocnc1-c1ccc(OC(F)(F)F)cc1 [Example 356, (4′-(4-(1,1-difluoroethyl)-2-methyl-1H-imidazol-1-yl)-3-fluoro-5-(methylsulfonyl)-3′-(4-(4-(trifluoromethoxy)phenyl)oxazol-5-yl)biphenyl-4-yl)methanol]
192 nM | 98% | Cc1nc(C(F)(F)F)cn1-c1ccc(-c2cc(F)c(CCO)c(S(C)(=O)=O)c2)cc1-n1nncc1-c1ccc(OC(F)(F)F)cc1 [Example 237, 2-(3-fluoro-4′-(2-methyl-4-(trifluoromethyl)-1H-imidazol-1-yl)-5-(methylsulfonyl)-3′-(5-(4-(trifluoromethoxy)phenyl)-1H-1,2,3-triazol-1-yl)-[1,1′-biphenyl]-4-yl)ethanol]
92 nM | 87% | Cc1nc(C(F)(F)F)cn1-c1c(F)cc(-c2cc(F)c(CO)c(S(C)(=O)=O)c2)cc1-n1nncc1-c1ccc(Cl)cc1 [Example 198, {3′-[5-(4-chlorophenyl)-1H-1,2,3-triazol-1-yl]-3,5′-difluoro-5-(methylsulfonyl)-4′-[2-methyl-4-(trifluoromethyl)-1H-imidazol-1-yl]biphenyl-4-yl}methanol]
408 nM | 55% | CS(=O)(=O)c1cccc(-c2cc(Cl)c(-n3cnc(C(F)(F)F)c3)c(-n3nncc3-c3ccc(Cl)cc3)c2)c1 [Example 7, 1-(5-chloro-3′-(methylsulfonyl)-4-(4-(trifluoromethyl)-1H-imidazol-1-yl)biphenyl-3-yl)-5-(4-chlorophenyl)-1H-1,2,3-triazole]
792 nM | 68% | Cc1nc(C(C)(F)F)cn1-c1ccc(-c2cccc(S(C)(=O)=O)c2)cc1-n1nncc1-c1ccc(Cl)cc1 [Example 176, 5-(4-chlorophenyl)-1-{4-[4-(1,1-difluoroethyl)-2-methyl-1H-imidazol-1-yl]-3′-(methylsulfonyl)biphenyl-3-yl}-1H-1,2,3-triazole]
518 nM | 92% | CS(=O)(=O)c1cccc(-c2cc(F)c(-n3cnc(C(F)(F)F)c3)c(-n3nncc3-c3ccc(Cl)cc3)c2)c1 [Example 187, 5-(4-chlorophenyl)-1-{5-fluoro-3′-(methylsulfonyl)-4-[4-(trifluoromethyl)-1H-imidazol-1-yl]biphenyl-3-yl}-1H-1,2,3-triazole]
127 nM | 81% | Cc1nc(C(F)(F)F)cn1-c1c(F)cc(-c2cccc(S(C)(=O)=O)c2)cc1-n1nncc1-c1ccc(OC(F)(F)F)cc1 [Example 201, 1-{5-fluoro-3′-(methylsulfonyl)-4-[2-methyl-4-(trifluoromethyl)-1H-imidazol-1-yl]biphenyl-3-yl}-5-{4-[(trifluoromethyl)oxy]phenyl)-1H-1,2,3-triazole]
529 nM | 116% | Cc1nc(C(F)(F)F)cn1-c1ccc(-c2cccc(S(C)(=O)=O)c2)cc1-n1nncc1-c1cccc(C(F)(F)F)c1 [Example 25, 1-{3′-(methylsulfonyl)-4-[2-methyl-4-(trifluoromethyl)-1H-imidazol-1-yl]biphenyl-3-yl}-5-[3-(trifluoromethyl)phenyl]-1H-1,2,3-triazole]
